Like-named read-outs stand apart in the source and are kept apart here.
How the values were obtained:
Assay in all cases: Test B pre-/postemergence plant response
Type in all cases: in vivo
[1] = tested on: surinam grass (Brachiaria decumbens); details: for Surinam Grass plant response rating: 8 g ai/ha; for pest or weed control at 16 g/ha: 16 g ai/ha; for pest or weed control at 62 g/ha: 62 g ai/ha
How it was run: (§1)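 Seeds were sown and sprayed preemergence, while plants at 2 to 18 cm (1- to 4-leaf stage) got postemergence sprays. Compounds were formulated in a non-phytotoxic solvent mixture with surfactant. After 13 to 15 days in a greenhouse, injury was rated visually against untreated controls, 0 (no effect) to 100 (complete control).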

[2] = tested on: downy bromegrass (Bromus tectorum); details: for Bromegrass, Downy plant response rating: 8 g ai/ha; for pest or weed control at 16 g/ha / pest or weed control at 31 g/ha / pest or weed control at 62 g/ha: Bromus tectorum, read-out: Plant response rating, Bromegrass, Downy; for pest or weed control at 16 g/ha: 16 g ai/ha; for pest or weed control at 31 g/ha: 31 g ai/ha; for pest or weed control at 62 g/ha: 62 g ai/ha
How it was run: as §1

[3] = tested on: Russian thistle (Salsola iberica); details: Preemergence
How it was run: as §1

soybean (Glycine max) = details: for Soybean plant response rating: 8 g ai/ha; for plant injury at 16 g/ha: 16 g ai/ha; for plant injury at 62 g/ha: 62 g ai/ha
How it was run: as §1

[4] = tested on: cocklebur (Xanthium strumarium); details: for Cocklebur plant response rating: 8 g ai/ha; for pest or weed control at 16 g/ha / pest or weed control at 31 g/ha / pest or weed control at 62 g/ha: Xanthium strumarium, read-out: Plant response rating, Cocklebur; for pest or weed control at 16 g/ha: 16 g ai/ha; for pest or weed control at 31 g/ha: 31 g ai/ha; for pest or weed control at 62 g/ha: 62 g ai/ha
How it was run: as §1

[5] = tested on: yellow nutsedge (Cyperus esculentus); details: for Nutsedge, Yellow plant response rating: 8 g ai/ha; for pest or weed control at 16 g/ha / pest or weed control at 31 g/ha / pest or weed control at 62 g/ha: Cyperus, read-out: Plant response rating, Nutsedge, Yellow; for pest or weed control at 16 g/ha: 16 g ai/ha; for pest or weed control at 31 g/ha: 31 g ai/ha; for pest or weed control at 62 g/ha: 62 g ai/ha
How it was run: as §1

[6] = tested on: lambsquarters (Chenopodium album); details: for pest or weed control at 16 g/ha: 16 g ai/ha; for pest or weed control at 31 g/ha: 31 g ai/ha
How it was run: as §1

[7] = post-emergence, Postemergence, scale 0 to 100
[8] = post-emergence, Postemergence, scale 0 to 100, 0 no effect, 100 complete control
[9] = pre-emergence, Preemergence, scale 0 to 100 (0 no effect, 100 complete control)
[10] = pre-emergence, Preemergence, 0 to 100 scale, 0 no effect, 100 complete control
[11] = pre-emergence, Preemergence, scale 0 to 100

Structure (SMILES): CCc1c(C)c(-c2ccc(Cl)cc2)nn1-c1c(O)cnn(C)c1=O [Compound 26, 4-[3-(4-chlorophenyl)-5-ethyl-4-methyl-1H-pyrazol-1-yl]-5-hydroxy-2-methyl-3(2H)-pyridazinone]
- Surinam Grass plant response rating ([1]; postemergence, 0-100 scale): 85
- Surinam Grass plant response rating ([1]; Preemergence, scale 0 to 100): 75
- pest or weed control at 16 g/ha ([1]; Urochloa decumbens, post-emergence, Postemergence, scale 0 to 100, read-out: Plant response rating, Surinam Grass): 85%
- pest or weed control at 62 g/ha ([1]; Urochloa decumbens, post-emergence, Postemergence, scale 0 to 100, 0 no effect, 100 complete control, read-out: Plant response rating, Surinam Grass): 100%
- pest or weed control at 16 g/ha ([1]; Urochloa decumbens, pre-emergence, Preemergence, scale 0 to 100 (0 no effect, 100 complete control), read-out: Plant response rating, Surinam Grass): 85%
- pest or weed control at 31 g/ha ([1]; Urochloa decumbens, pre-emergence, Preemergence, 31 g ai/ha, 0 to 100 scale, 0 no effect, 100 complete control, read-out: Plant response rating, Surinam Grass): 100%
- pest or weed control at 62 g/ha ([1]; Urochloa decumbens, pre-emergence, Preemergence, scale 0 to 100, read-out: Plant response rating, Surinam Grass): 100%
- Bromegrass, Downy plant response rating ([2]; postemergence, 0-100 scale): 0
- pest or weed control at 16 g/ha [2, 7]: 10%
- pest or weed control at 31 g/ha [2, 8]: 30%
- pest or weed control at 62 g/ha [2, 8]: 60%
- pest or weed control at 16 g/ha [2, 9]: 0%
- pest or weed control at 31 g/ha [2, 10]: 10%
- pest or weed control at 62 g/ha [2, 11]: 65%
- Bromegrass, Downy plant response rating ([2]; Preemergence, scale 0 to 100): 0
- Plant response rating, Russian Thistle ([3]; 16 g ai/ha, scale 0 to 100 (0 no effect, 100 complete control)): 0
- Plant response rating, Russian Thistle ([3]; 31 g ai/ha, 0 to 100 scale, 0 no effect, 100 complete control): 0
- Plant response rating, Russian Thistle ([3]; 62 g ai/ha, scale 0 to 100): 0
- Russian Thistle plant response rating ([3]; 8 g ai/ha, scale 0 to 100): 0
- Soybean plant response rating (soybean (Glycine max); postemergence, 0-100 scale): 0
- plant injury at 16 g/ha (soybean (Glycine max); Glycine max, post-emergence, Postemergence, scale 0 to 100, read-out: Plant response rating, Soybean): 0%
- plant injury at 62 g/ha (soybean (Glycine max); Glycine max, post-emergence, Postemergence, scale 0 to 100, 0 no effect, 100 complete control, read-out: Plant response rating, Soybean): 0%
- plant injury at 16 g/ha (soybean (Glycine max); Glycine max, pre-emergence, Preemergence, scale 0 to 100 (0 no effect, 100 complete control), read-out: Plant response rating, Soybean): 0%
- plant injury at 31 g/ha (soybean (Glycine max); Glycine max, pre-emergence, Preemergence, 31 g ai/ha, 0 to 100 scale, 0 no effect, 100 complete control, read-out: Plant response rating, Soybean): 0%
- plant injury at 62 g/ha (soybean (Glycine max); Glycine max, pre-emergence, Preemergence, scale 0 to 100, read-out: Plant response rating, Soybean): 0%
- Soybean plant response rating (soybean (Glycine max); Preemergence, scale 0 to 100): 0
- Cocklebur plant response rating ([4]; postemergence, 0-100 scale): 0
- Cocklebur plant response rating ([4]; Preemergence, scale 0 to 100): 0
- pest or weed control at 16 g/ha [4, 7]: 0%
- pest or weed control at 31 g/ha [4, 8]: 0%
- pest or weed control at 62 g/ha [4, 8]: 0%
- pest or weed control at 16 g/ha [4, 9]: 0%
- pest or weed control at 31 g/ha [4, 10]: 0%
- pest or weed control at 62 g/ha [4, 11]: 10%
- Nutsedge, Yellow plant response rating ([5]; postemergence, 0-100 scale): 0
- pest or weed control at 16 g/ha [5, 7]: 0%
- pest or weed control at 31 g/ha [5, 8]: 0%
- pest or weed control at 62 g/ha [5, 8]: 0%
- pest or weed control at 16 g/ha [5, 9]: 0%
- pest or weed control at 31 g/ha [5, 10]: 0%
- pest or weed control at 62 g/ha [5, 11]: 0%
- Nutsedge, Yellow plant response rating ([5]; Preemergence, scale 0 to 100): 0
- Lambsquarters plant response rating ([6]; 8 g ai/ha, postemergence, 0-100 scale): 0
- pest or weed control at 16 g/ha ([6]; Chenopodium album, post-emergence, Postemergence, scale 0 to 100, read-out: Plant response rating, Lambsquarters): 0%
- pest or weed control at 31 g/ha ([6]; Chenopodium album, post-emergence, Postemergence, scale 0 to 100, 0 no effect, 100 complete control, read-out: Plant response rating, Lambsquarters): 0%
- pest or weed control at 62 g/ha ([6]; Chenopodium album, post-emergence, Postemergence, 62 g ai/ha, scale 0 to 100, 0 no effect, 100 complete control, read-out: Plant response rating, Lambsquarters): 0%
- pest or weed control at 16 g/ha ([6]; Chenopodium album, pre-emergence, Preemergence, scale 0 to 100 (0 no effect, 100 complete control), read-out: Plant response rating, Lambsquarters): 0%
- pest or weed control at 31 g/ha ([6]; Chenopodium album, pre-emergence, Preemergence, 0 to 100 scale, 0 no effect, 100 complete control, read-out: Plant response rating, Lambsquarters): 0%

— patent US20100267561A1, “HERBICIDAL PYRIDAZINONE DERIVATIVES” (priority 2007, published 2010)
